Data: patent US8809304B2, “Amine compound and use thereof for medical purposes” (Mitsubishi Tanabe Pharma Corporation, priority 2005, dated 2014)
Structures can show the parent of a compound that is named as a salt.

Key:
[1] = system: peripheral blood lymphocyte count; test: Evaluation of peripheral blood lymphocyte count-decreasing effect in mice; assay type: in vivo; details: male BALB/cAnNCrj mice, intraperitoneally administered, 24 hr after administration
[2] = Effect on heart rate in rat telemetry; assay type: in vivo, Sprague-Dawley (IGS) rats; details: orally administered, up to the dose of 30 mg/kg body weight, measured from 24 hr before to 72 hr after administration
Experimental: Effect on Heart Rate in Rat Telemetry
Male Sprague-Dawley (IGS) rats were anesthetized by intraperitoneal administration of Nembutal (manufactured by DAINIPPON PHARMACEUTICAL CO., LTD.), a pressure sensor connected to a telemetry transmitter (TL11M2-C50-PTX, manufactured by Data Sciences International) was inserted into the abdominal artery, and the transmitter was subcutaneously dwelled in the abdomen. The data of blood pressure and heart rate were recorded by an analysis soft (Dataquest A.R.T., Data Science) via a receiver (RPC-1, manufactured by Data Sciences International). When 10 days to 2 weeks elapsed from the surgery, recovery of heart rate circadian rhythm was confirmed, and the rats were subjected to the experiment. The compound of the present invention was suspended in 0.5% hydroxypropylmethylcellulose (manufactured by Shin-Etsu Chemical Co., Ltd.) and orally administered. The heart rate was measured from 24 hr before the administration to 72 hr after the administration.

SMILES | mouse peripheral blood lymphocyte count-decreasing effect, ED50 value (dose necessary for 50% reduction of the lymphocyte count of vehicle group as 100%) [1] [mg/kg body weight] | effect on heart rate of the rat [2]
CCCCCCCOc1ccc(CCC(N)(CO)CO)cc1C.Cl [comparison compound 1-7, 2-amino-2-[2-(4-heptyloxy-3-methylphenyl)ethyl]propane-1,3-diol Hydrochloride, reference compound] | 0.64 | –
CCCCCCCOc1ccc(CCC(N)(CO)CO)cc1C(F)(F)F.Cl [compound 1-3, 2-amino-2-[2-(4-heptyloxy-3-trifluoromethylphenyl)ethyl]propane-1,3-diol Hydrochloride] | 0.04 | did not affect the heart rate
CCCCCCCOc1ccc(CCC(C)(N)CO)cc1C(F)(F)F.Cl (stereo not drawn) [compound 13-6, 2-amino-4-(4-heptyloxy-3-trifluoromethylphenyl)-2-methylbutanol Hydrochloride] | 0.02 | –
CCCCCCCOc1ccc(CC[C@@](C)(N)CO)cc1C(F)(F)F.Cl [compound 15-3, (R)-2-amino-4-(4-heptyloxy-3-trifluoromethylphenyl)-2-methylbutanol Hydrochloride] | 0.02 | –
CCCCCCCOc1ccc(/C=C/C(N)(CO)CO)cc1C(F)(F)F [compound 28-6, (E)-2-amino-2-[2-(4-heptyloxy-3-trifluoromethylphenyl)vinyl]propane-1,3-diol Hydrochloride] | 0.03 | –
